The values that follow come from patent US6492365B1, “Microsomal triglyceride transfer protein” (Bristol-Myers Squibb Company, priority 1992, dated 2002).

Molecules are shown by their SMILES. Where a name gives a salt, the structure may show the parent alone.

The test addresses T1, bovine MTP (Bos taurus, UniProt P55156).
T1 construct: with about 50-200 ng purified MTP in the well of a 96-well plate; from tissue; host or cells: bovine liver
T1 sequence (P55156 12-887): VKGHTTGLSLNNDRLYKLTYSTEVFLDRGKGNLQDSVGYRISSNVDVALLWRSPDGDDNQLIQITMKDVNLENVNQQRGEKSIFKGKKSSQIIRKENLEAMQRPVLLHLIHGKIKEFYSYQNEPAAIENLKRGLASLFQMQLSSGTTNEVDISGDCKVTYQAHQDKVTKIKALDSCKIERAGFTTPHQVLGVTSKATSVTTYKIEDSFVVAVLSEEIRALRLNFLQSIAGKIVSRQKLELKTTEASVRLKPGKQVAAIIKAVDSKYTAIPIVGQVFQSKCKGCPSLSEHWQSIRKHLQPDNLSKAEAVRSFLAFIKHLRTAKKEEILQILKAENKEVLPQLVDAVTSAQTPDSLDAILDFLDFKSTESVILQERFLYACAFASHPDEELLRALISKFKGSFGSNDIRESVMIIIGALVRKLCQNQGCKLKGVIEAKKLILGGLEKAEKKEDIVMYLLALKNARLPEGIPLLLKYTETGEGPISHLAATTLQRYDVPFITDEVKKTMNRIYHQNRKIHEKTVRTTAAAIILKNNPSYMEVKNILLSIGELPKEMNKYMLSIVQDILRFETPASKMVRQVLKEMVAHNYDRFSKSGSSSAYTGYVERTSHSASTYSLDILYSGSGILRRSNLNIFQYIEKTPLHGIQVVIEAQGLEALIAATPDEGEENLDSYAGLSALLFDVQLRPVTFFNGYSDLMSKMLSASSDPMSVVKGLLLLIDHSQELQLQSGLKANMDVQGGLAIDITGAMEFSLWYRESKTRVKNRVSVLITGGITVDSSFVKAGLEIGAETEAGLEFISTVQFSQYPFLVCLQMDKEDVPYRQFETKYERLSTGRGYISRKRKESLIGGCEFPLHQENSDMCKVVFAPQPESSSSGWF
T1 sequence (P05307 21-510 partner): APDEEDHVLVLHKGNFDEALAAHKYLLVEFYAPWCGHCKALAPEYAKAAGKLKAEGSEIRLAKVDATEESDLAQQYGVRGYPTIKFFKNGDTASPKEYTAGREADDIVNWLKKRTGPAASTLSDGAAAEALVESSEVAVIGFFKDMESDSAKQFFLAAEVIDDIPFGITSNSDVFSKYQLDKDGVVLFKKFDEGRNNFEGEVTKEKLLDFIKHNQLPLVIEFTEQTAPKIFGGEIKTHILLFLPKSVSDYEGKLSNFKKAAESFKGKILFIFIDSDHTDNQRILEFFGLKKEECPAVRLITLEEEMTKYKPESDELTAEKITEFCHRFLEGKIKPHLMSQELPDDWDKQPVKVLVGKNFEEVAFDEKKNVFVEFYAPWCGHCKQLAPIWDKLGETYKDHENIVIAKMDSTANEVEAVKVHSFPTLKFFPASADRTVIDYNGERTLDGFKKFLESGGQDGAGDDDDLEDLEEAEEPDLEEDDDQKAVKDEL
The test is described as follows: MTP-catalyzed transfer of radiolabeled TG from donor HDL to acceptor LDL (primary screen). The test is classed as biochemical. The conditions noted are these: result in words. The procedure: In this screen, the rate of detectably labeled lipid (for example, NMR, ESR, radio or fluorescently labeled TG, CE, or PC) transfer from donor particles (e.g., donor membranes, vesicles, or lipoproteins) to acceptor particles (e.g., acceptor membranes, vesicles, or lipoproteins) in the presence of MTP is measured. A decrease in the observed transfer rate in the presence of an inhibitor of MTP (e.g., contained in a natural products extract or known compounds) may be used as an assay to identify and isolate inhibitors of MTP function. […]
In a typical 150 μL assay, transfer activity is determined by measuring the transfer of radiolabeled TG from [^3H]-HDL (5 μg cholesterol) donor particles to LDL (50 μg cholesterol) acceptor particles at 37° C. for three hours in 15 mM Tris, pH 7.4, 125 mM MOPS, 30 mM Na acetate, 160 mM NaCl, 2.5 mM Na2 EDTA, 0.02% NaN3, 0.5% BSA with about 50-200 ng purified MTP in the well of a 96-well plate. […] The enzyme activity is based on the percentage of TG transfer and is calculated by the following equation: [formula] […]
Using the method outlined in Example 5, MTP inhibitor compounds A and B were identified. The assay measured the bovine MTP-catalyzed rate of transport of radiolabeled TG from donor HDL to acceptor LDL. […]

In the case of `COc1ccccc1N1CCN(CC2CC(=O)c3ccc(F)cc3C2)CC1` (centres unmarked) [compound B, 1-[3-(6-fluoro-1-tetralanyl)methyl]-4-O-methoxyphenyl piperazine], the “inhibition of MTP-catalyzed transport of 3H-TG from HDL to LDL” value is “MTP inhibitor”. As to `O=C1c2ccccc2CN1C1CCN(CCC(c2ccccc2)c2ccccc2)CC1` [compound A, 2-[1-(3,3-diphenylpropyl)-4-piperdinyl]-2,3-dihydro-3-oxo-1H-isoindole hydrochloride], the “inhibition of MTP-catalyzed transport of 3H-TG from HDL to LDL” value is reported as “inhibited”.
